Test results published in patent US20080255115A1, “THIAZOLIDINEDIONE DERIVATIVES AS PI3 KINASE INHIBITORS” (priority 2007, published 2008).

How the values were obtained:
PI3Kα = target: T1, PI3Kα (Homo sapiens, UniProt P42336); test: PI3K Alpha Leadseeker SPA Assay; assay type: biochemical; conditions: His-p110/p85 PI3K alpha, SPA imaging beads, P33-ATP; read-out: IC50 against PI3Kα
T1 construct: His
Protocol: PI3K Alpha Leadseeker SPA Assay
Compounds of the present invention were tested according to the following assays and found as inhibitors of PI3 kinases, particularly PI3Kα. The activities (IC50) range from 1 to 500 μM against PI3Kα.
SPA imaging beads are microspheres containing scintillant which emit light in the red region of the visible spectrum. As a result, these beads are ideally suited to use with a CCD imager such as the Viewlux. The Leadseeker beads used in this system are polystyrene beads that have been coupled with polyethyleneimine. When added to the assay mixture, the beads absorb both the substrate (PIP2) and product (PIP3). Adsorbed P^33-PIP3 will cause an increase in signal, measured as ADUs (analog to digital units). This protocol details the use of the PEI-PS Leadseeker beads for assays using His-p110/p85 PI3K alpha.
Solid compounds are typically plated with 0.1 μl of 100% DMSO in all wells (except column 6 and 18) of a 384-well, flat bottom, low volume plate (Greiner 784075). […]
The assay buffer contains MOPS (pH 6.5), CHAPS, and DTT. […] The signal is determined using a Viewlux detector and is then imported into curve fitting software (Activity Base) for construction of concentration response curves. […]

Class I PI3-kinases = conditions: wortmannin, background section; read-out: IC50 against each of the various Class I PI3-kinases; cited from earlier work

T1 sequence (P42336 whole entry): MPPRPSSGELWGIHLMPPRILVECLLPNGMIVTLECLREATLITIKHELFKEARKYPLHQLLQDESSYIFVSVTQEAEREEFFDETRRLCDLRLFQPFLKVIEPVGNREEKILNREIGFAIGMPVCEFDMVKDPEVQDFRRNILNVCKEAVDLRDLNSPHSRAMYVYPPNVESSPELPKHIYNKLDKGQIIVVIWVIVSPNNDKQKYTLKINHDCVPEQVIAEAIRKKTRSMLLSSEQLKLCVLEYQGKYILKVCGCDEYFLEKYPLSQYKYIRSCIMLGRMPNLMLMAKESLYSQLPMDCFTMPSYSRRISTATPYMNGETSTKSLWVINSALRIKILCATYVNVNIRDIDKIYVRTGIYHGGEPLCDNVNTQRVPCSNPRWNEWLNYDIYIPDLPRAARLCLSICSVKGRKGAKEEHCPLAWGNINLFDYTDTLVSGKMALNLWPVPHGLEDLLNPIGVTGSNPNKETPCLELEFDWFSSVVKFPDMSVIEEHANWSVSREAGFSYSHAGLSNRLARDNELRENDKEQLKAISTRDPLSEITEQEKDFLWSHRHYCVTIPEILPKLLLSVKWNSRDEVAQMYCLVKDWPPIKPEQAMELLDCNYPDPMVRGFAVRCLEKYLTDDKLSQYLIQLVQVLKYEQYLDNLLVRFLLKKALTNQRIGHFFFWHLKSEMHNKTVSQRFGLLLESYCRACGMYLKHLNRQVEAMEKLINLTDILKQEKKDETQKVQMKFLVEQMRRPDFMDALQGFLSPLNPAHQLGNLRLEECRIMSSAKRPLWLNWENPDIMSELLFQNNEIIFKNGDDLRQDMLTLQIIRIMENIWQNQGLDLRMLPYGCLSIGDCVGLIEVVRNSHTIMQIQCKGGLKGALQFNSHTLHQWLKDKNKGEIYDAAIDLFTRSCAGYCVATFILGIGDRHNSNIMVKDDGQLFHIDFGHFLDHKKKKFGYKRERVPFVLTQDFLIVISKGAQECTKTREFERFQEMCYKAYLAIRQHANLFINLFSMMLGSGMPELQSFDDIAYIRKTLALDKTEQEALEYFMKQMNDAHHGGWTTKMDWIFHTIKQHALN
T1 sequence (P27986 whole entry partner): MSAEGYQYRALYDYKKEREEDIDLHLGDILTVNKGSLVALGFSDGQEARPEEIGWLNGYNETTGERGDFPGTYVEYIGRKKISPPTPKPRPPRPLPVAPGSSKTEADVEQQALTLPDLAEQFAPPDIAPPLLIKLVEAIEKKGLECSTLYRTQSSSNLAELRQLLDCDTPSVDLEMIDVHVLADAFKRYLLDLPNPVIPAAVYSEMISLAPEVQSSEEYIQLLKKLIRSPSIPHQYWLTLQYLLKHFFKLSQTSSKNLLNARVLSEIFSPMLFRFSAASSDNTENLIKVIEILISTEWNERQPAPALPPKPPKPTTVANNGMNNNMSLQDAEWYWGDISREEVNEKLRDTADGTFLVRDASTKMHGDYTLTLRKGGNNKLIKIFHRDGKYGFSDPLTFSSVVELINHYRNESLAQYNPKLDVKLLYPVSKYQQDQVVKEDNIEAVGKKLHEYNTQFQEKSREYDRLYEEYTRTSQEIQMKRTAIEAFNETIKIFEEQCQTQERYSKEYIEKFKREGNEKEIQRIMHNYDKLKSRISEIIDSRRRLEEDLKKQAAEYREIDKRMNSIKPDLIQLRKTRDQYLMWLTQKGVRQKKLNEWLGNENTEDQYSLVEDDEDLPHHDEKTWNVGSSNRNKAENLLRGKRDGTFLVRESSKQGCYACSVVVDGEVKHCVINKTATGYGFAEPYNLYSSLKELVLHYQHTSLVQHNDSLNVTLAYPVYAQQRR

IC50 (PI3Kα)	Structure (SMILES)	IC50 (Class I PI3-kinases)
1000 nM	O=C1NC(=O)/C(=C/c2ccc3nccc(-c4ccncc4)c3c2)S1 [Example 1, (5Z)-5-{[4-(4-pyridinyl)-6-quinolinyl]methylidene}-1,3-thiazolidine-2,4-dione]	
	COC[C@H]1OC(=O)c2coc3c2[C@@]1(C)C1=C(C3=O)[C@@H]2CCC(=O)[C@@]2(C)C[C@H]1OC(C)=O [wortmannin]	1 to 10 nM
